Measured values: US9127040B2, “Regulation of sodium channels by PLUNC proteins” (The University of North Carolina at Chapel Hill, priority 2011, dated 2015)

Tests used:
ENaC [1] = target: T1, ENaC (Homo sapiens, UniProt P37088+P51168+P51170); experiment: Transepithelial electrical resistance in human bronchial epithelial cultures; format: cell-based; conditions: 50 ng/ml SPLUNC1 30 min or amiloride 10 min; effects not additive
T1 construct: measured the transepithelial voltage under thin film conditions in human bronchial epithelial cultures; endogenous in cells; host or cells: primary human bronchial epithelial cultures (normal or CF donors)
T1 sequence (P37088 1-669): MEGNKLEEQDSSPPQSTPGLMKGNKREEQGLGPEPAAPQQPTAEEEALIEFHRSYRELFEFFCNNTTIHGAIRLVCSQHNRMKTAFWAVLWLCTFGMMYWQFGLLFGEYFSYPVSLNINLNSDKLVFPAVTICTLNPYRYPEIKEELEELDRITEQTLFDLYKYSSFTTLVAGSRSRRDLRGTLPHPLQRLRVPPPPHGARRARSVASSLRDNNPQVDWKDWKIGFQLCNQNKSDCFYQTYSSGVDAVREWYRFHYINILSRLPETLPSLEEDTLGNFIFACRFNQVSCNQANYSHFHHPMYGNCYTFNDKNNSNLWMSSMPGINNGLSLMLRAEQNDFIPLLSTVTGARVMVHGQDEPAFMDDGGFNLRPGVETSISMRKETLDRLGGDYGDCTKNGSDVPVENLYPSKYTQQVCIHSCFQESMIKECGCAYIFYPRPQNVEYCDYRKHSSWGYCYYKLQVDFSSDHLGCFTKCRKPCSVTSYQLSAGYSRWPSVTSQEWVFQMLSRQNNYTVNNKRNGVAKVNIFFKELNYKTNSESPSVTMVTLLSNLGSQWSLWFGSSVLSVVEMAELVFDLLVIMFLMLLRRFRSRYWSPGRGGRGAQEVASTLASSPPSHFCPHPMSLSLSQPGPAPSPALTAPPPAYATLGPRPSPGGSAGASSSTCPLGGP
T1 sequence (P51168 1-640): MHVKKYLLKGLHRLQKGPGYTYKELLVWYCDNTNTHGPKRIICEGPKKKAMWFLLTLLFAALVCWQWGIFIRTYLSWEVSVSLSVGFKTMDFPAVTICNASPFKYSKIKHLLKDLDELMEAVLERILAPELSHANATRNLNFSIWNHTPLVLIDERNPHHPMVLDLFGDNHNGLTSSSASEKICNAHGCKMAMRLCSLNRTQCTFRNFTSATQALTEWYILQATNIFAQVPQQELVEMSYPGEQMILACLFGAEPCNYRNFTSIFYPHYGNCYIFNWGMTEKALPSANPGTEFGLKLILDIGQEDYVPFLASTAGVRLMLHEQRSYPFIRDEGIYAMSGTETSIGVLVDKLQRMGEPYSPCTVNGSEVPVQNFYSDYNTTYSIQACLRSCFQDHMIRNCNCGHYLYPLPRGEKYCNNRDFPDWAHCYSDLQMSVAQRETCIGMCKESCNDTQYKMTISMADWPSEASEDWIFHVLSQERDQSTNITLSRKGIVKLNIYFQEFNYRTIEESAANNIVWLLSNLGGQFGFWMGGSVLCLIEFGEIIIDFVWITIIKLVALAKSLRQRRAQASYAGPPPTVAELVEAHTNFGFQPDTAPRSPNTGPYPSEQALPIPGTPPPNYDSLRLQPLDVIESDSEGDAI
T1 sequence (P51170 1-649): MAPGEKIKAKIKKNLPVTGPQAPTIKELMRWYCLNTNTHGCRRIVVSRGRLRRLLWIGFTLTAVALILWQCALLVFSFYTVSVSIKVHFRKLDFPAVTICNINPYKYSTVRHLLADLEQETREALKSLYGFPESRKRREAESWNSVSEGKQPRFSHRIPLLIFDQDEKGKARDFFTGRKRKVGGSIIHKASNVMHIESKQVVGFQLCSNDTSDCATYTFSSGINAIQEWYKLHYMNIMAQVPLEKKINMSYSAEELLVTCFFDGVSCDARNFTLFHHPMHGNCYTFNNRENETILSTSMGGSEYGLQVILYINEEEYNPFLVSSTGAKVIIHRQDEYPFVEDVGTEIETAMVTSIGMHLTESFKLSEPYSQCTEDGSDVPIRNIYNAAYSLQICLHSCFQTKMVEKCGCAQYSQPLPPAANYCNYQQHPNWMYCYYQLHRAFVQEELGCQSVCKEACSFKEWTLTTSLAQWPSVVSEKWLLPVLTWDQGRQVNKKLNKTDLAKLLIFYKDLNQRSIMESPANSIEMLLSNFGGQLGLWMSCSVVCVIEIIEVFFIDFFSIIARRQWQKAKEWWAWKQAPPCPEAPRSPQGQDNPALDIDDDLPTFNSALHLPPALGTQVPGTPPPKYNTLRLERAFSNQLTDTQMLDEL
Text: A single-barreled potential difference-sensing electrode was placed in the airway surface liquid by micromanipulator and used in conjunction with a macroelectrode in the serosal solution to measure transepithelial voltage using a voltmeter (World Precision Instruments). […] Transepithelial resistance was routinely measured using the EVOM system (WPI) as previously described ([…] et al., J. Gen. Physiol. 127:591 (2006)).

ENaC [2] = target: T1, ENaC; experiment: Transepithelial voltage (PD), thin film conditions, human bronchial epithelial cultures; format: cell-based; design: reduction of transepithelial voltage: dose or concentration left out as unconfirmed
Text: Tissue procurement and cell culture: Cells were harvested by enzymatic digestion from human bronchial tissue as previously described under a protocol approved by the UNC School of Medicine IRB (Tarran et al., J. Gen. Physiol. 127:591 (2006)). Human excess donor lungs and excised recipient lungs were obtained at the time of lung transplantation from portions of main stem or […] bronchi and cells were harvested by enzymatic digestion. All preparations were maintained at an air-liquid interface in a modified bronchial epithelial medium and used 2-5 weeks after seeding on 12 mm T-Clear inserts (Corning Costar) coated with human placental type VI collagen (Sigma). Phosphate buffered saline (PBS) was used for washing human bronchial epithelial culture mucosal surfaces. HBECs were maintained at an air-liquid interface in a modified bronchial epithelial growth medium (BEGM) with 5% CO2 at 37° C. and used 2-5 weeks after seeding on 12-mm T-clear inserts (Corning-Costar, Corning, N.Y., USA) (Randell, Methods Mol. Biol. 742:285 (2011)).
A single-barreled potential difference-sensing electrode was placed in the airway surface liquid by micromanipulator and used in conjunction with a macroelectrode in the serosal solution to measure transepithelial voltage using a voltmeter (World Precision Instruments). […] Transepithelial resistance was routinely measured using the EVOM system (WPI) as previously described (Tarran et al., J. Gen. Physiol. 127:591 (2006)).

ENaC [3] = target: T1, ENaC; experiment: ASL height 6 h after exposure, alanine scan of S18; format: cell-based
Experimental: To label the ASL, PBS containing 10 kDa Rhodamine dextran (0.2-2 mg/mL; Invitrogen, Carlsbad, Calif., USA) was added to HBEC mucosal surfaces as previously described (Tarran et al., Mol. Cell 8:149 (2001)). When added, peptides with or without 100 nM neutrophil elastase, 1 U/mL aprotinin, activated neutrophil supernatant (ANS) (Haynes et al., Am. J. Physiol. Heart Circ. Physiol. 294:H379 (2008)) or 10 μM sivelestat (Sigma-Aldrich, St Louis, Mo., USA) were added to the mucosal surface along with the Rhodamine dextran. Bumetanide (100 μM) was added to the serosal solution.
ASL height was measured 6 h after exposure to vehicle, control peptide, S18 or S18 with specific residues mutated to alanine as outlined in FIG. 31. […] NB, G1, G2 and A18 were not mutated. […] All n=6.

βENaC = target: T2, βENaC (Homo sapiens, UniProt P51168); experiment: Biotinylated peptide pull-down of ENaC subunits from HEK293T cells; format: binding; conditions: subunits individually expressed, biotinylated peptide
T2 construct: expressed in transfected cells; host or cells: HEK293T cells (lysate)
T2 sequence (P51168 1-640): T1 sequence (P51168 1-640)
Experimental: HEK293T cells were transfected with double-tagged human ENaC subunits with HA and V5 epitopes at the N- and C-termini, respectively, in combination with wild-type untagged subunit cDNA. When all three ENaC subunits were expressed, 0.5 μg of each subunit were transfected per well. When expressed individually, 0.75 μg of the subunit were transfected per well. The transfected cells were lysed 24 h later using NP-40 buffer with 1× complete EDTA-free protease inhibitor (Roche, Basel, Switzerland). The lysate was centrifuged at 16,300×g for 15 minutes at 4° C. and the supernatant collected. Protein concentration was determined using the BCA assay and 500 μg of protein plus 0.25 mg peptide and 100 μL of neutravidin were added to a spin column and rotated end-over-end at 4° C. for 24 h (all ThermoFisher Scientific, Rockford, Ill., USA). Flow-through was collected by centrifugation at 1000×g for 30 s. The beads were then washed 5× with NP-40 buffer. Bound protein was eluted by boiling at 95° C. for 10 minutes in 75 μL of 2×LDS NuPAGE sample buffer with 1× sample reducing agent followed by centrifugation at 16,300×g for 2 minutes. Samples were resolved on 4-12% Bis-Tris gels in MES and transferred to a nitrocellulose membrane using iBlot, setting P3 for 8 min (Invitrogen, Carlsbad, Calif., USA). The membrane was probed using 1:1000 anti-V5 antibody (Invitrogen, Carlsbad, Calif., USA) overnight at 4° C. in 3% fish gelatin in TBS-T. The blot was then incubated for 1 h at room temperature with an ECL sheep anti-mouse IgG secondary antibody and detected by ECL reagent (ThermoFisher Scientific, Waltham, Mass., USA) or by incubation with a goat anti-mouse IRDye secondary antibody and analyzed by an Odyssey infrared imaging system (LI-COR Biosciences, Lincoln, Nebr., USA).
Peptide pull-down assays were performed as described above. Samples were eluted by the addition of 100 μL of 0.1 M sodium citrate, pH 5.5, 0.1% SDS to the beads and incubating at 100° C. for 2 minutes, followed by centrifugation at 16,300×g for 2 minutes. […]

trypsin = experiment: Cell-free fluorogenic assay, trypsin cleavage of BGAR-MCA; format: biochemical; conditions: 50 ng/ml rSPLUNC1 or 2 U/ml aprotinin; 1.0 or 0.3 U/ml trypsin
Experimental: (§1) For cell-free assays, reactions were carried out in 50 μl Ringer in a 96 well plate format with 100 μM BGAR-MCA. To measure endogenous protease activity in human bronchial epithelial cultures, 30 μl Ringer with 100 μM BGAR-MCA were placed directly onto the mucosal surfaces of human bronchial epithelial cultures grown on 12 mm T-clear inserts and the cultures were assayed in 12 well plates.

serine proteases = experiment: Endogenous protease activity (BGAR-MCA cleavage) on mucosal surface of human bronchial epithelial cultures; format: cell-based
Experimental: as §1

CF HBECs = conditions: 8 h ASL height
Experimental: To label airway surface liquid, Ringer containing Texas Red-dextran (2 mg/ml; Invitrogen) was added to human bronchial epithelial culture mucosal surfaces. Perfluorocarbon was added mucosally to prevent evaporation of the airway surface liquid and the culture placed in a chamber containing 100 μl Ringer on the stage of a Leica SP5 confocal microscope with a 63× glycerol immersion objective. 5 points per culture were scanned and an average airway surface liquid height determined. For confocal microscopy human bronchial epithelial cultures were bathed serosally in a modified Ringer solution containing (mM): 116 NaCl, 10 NaHCO3, 5.1 KCl, 1.2 CaCl2, 1.2 MgCl2, 20 TES, 10 glucose, pH 7.4). At all other times, human bronchial epithelial cultures were maintained in a modified BEGM growth medium which contained 24 mM NaHCO3 gassed with 5% CO2.

[4] = target: T3, αENaC-eGFP and βENaC-mCherry (Homo sapiens, UniProt P37088+P51168); experiment: Acceptor-photobleaching FRET between fluorescently tagged ENaC subunits; format: cell-based; conditions: one hour of exposure
T3 construct: expressed in transfected cells
Text: Ai, cartoon of αENaC-eGFP and βENaC-mCherry under basal conditions (γENaC not shown). Aii We hypothesize that S18 binding to the extracellular loop of βENaC (1) induces a conformational change in ENaC which is reflected as altered intracellular FRET (2). This change may facilitate NEDD4-2-induced ubiquitination (3), leading to internalization of αβγENaC (4). […] In contrast, exposure to aprotinin had no effect. All n=8-10. C, Typical confocal images of HEK cells expressing αγENaC and βENaC-eGFP before and 1 h after 100 μM S18. Cell outlines are traced in white.
Since ENaC is regulated by NEDD4-2 binding to its C-termini, which leads to ubiquitination of its N-termini and internalization, we propose that S18 causes a conformational change in ENaC, leading to increased ubiquitination followed by internalization (FIG. 21A). As a first step towards understanding the mechanism of action of SPLUNC1, we performed FRET on fluorescently tagged ENaCs. […] Furthermore, βENaC-eGFP internalized upon S18 binding (FIG. 21C), consistent with our surface biotinylation data from oocytes.

## N=C(N)NC(=O)c1nc(Cl)c(N)nc1N [amiloride, reference compound]
ENaC [1]
  increase of transepithelial electrical resistance: ~33%
ENaC [2]; amiloride for 10 min (FIG. 4 legend), n=12
  reduction of transepithelial voltage: 54%

## ADGGLLLLNNPPPPQTVV (Control peptide sequence) [ABC, reference compound]
ENaC [3]
  ASL height: no effect on ASL height
βENaC
  binding to βENaC (pull-down): No β-ENaC was observed in the elution

## aprotinin [reference compound]
trypsin
  inhibition of trypsin cleavage of fluorogenic substrate BGAR-MCA: ~100%
Serine proteases
  BGAR-MCA cleavage on human bronchial epithelial mucosal surfaces: inhibited
CF HBECs
  CF ASL hyperabsorption: reduces CF ASL hyperabsorption
CF HBECs; neutrophil elastase
  CF ASL hyperabsorption in the presence of neutrophil elastase: did not prevent neutrophil elastase from activating ENaC
ENaC [2]; rSPLUNC1 vs aprotinin addition, effects not additive
  rate of inhibition of the transepithelial voltage: identical rates
[4]
  FRET between αENaC-eGFP and βENaC-mCherry: no effect
